The results in this text go back to patent publication US10787462B2, “Heterocyclic compound” (TAKEDA PHARMACEUTICAL COMPANY LIMITED, priority 2015, dated 2020).

The first assay concerns the target T1, human RIPK1 (1-375) (Homo sapiens, UniProt Q13546).
T1 construct: human RIPK1 (1-375) gene; GST; made in house; host or cells: Sf-9 insect cells
T1 sequence (Q13546 1-375): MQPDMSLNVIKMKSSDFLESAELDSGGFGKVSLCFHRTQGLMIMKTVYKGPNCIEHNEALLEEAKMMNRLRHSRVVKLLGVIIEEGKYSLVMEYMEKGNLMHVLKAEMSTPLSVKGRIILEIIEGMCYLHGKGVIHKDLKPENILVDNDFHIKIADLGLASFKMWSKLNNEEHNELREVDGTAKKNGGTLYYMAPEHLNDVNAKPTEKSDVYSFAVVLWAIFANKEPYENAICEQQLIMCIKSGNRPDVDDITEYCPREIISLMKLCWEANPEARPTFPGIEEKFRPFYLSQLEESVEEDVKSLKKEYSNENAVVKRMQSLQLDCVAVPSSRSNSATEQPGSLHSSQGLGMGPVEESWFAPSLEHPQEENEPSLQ
In words: Human RIPK1 enzyme inhibitory effect (ADP-Glo Kinase Assay). Format: biochemical. Particulars: 10 μM test compound; well without enzyme = 100% inhibition; 10 µM. In a few lines:
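Human RIPK1 (1-375), GST-purified from Sf-9 cells, preincubated 20 min at room temperature with compound in 25 mM HEPES pH 7.5, 10 mM MgCl2, 0.01% Tween-20, 2 mM DTT. Reaction started with 0.6 mM ATP solution (stock), run 120 min at room temperature. ADP measured by ADP-Glo luminescence.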
As to `CN1C(=O)C(N2CCc3c(nn(Cc4ccccc4F)c3Cl)C2=O)CCc2ccncc21` (stereo not drawn) [Example 97, 3-(3-chloro-2-(2-fluorobenzyl)-7-oxo-2,4,5,7-tetrahydro-6H-pyrazolo[3,4-c]pyridin-6-yl)-1-methyl-1,3,4,5-tetrahydro-2H-pyrido[3,4-b]azepin-2-one], the “human RIPK1 enzyme inhibitory effect at 10 μM (% inhibition)” value is reported as 98%. As for `CN1C(=O)C(N2CCc3c(nn(Cc4ccccc4)c3Cl)C2=O)CCc2cccnc21` (stereo not drawn) [Example 91, 7-(2-benzyl-3-chloro-7-oxo-2,4,5,7-tetrahydro-6H-pyrazolo[3,4-c]pyridin-6-yl)-9-methyl-5,6,7,9-tetrahydro-8H-pyrido[2,3-b]azepin-8-one], the “human RIPK1 enzyme inhibitory effect at 10 μM (% inhibition)” value is reported as 100%. The same measure, in the same setting: the figure for `CN1C(=O)C(N2CCc3c(nn(Cc4c(F)cccc4F)c3Cl)C2=O)CCc2c1cnn2C` (stereo not drawn) [Example 133, 6-(3-chloro-2-(2,6-difluorobenzyl)-7-oxo-2,4,5,7-tetrahydro-6H-pyrazolo[3,4-c]pyridin-6-yl)-1,4-dimethyl-4,6,7,8-tetrahydropyrazolo[4,3-b]azepin-5(1H)-one] is 100%.

The same assay, now with this note: read-out: human RIPK1 enzyme inhibitory effect at 10 μM (% inhibition), 10 μM test compound; well without enzyme = 100% inhibition.
Usually inhibition stands for the change of the read-out against control, counted positive when it falls. As to `CN1C(=O)[C@@H](N2CCc3cn(Cc4ccccc4)nc3C2=O)CS(=O)(=O)c2ccccc21` [Example 69, (3R)-3-(2-benzyl-7-oxo-2,4,5,7-tetrahydro-6H-pyrazolo[3,4-c]pyridin-6-yl)-5-methyl-2,3-dihydro-1,5-benzthiazepin-4(5H)-one 1,1-dioxide], the inhibition at 10 µM amounted to 99%. As to `CN1C(=O)[C@@H](N2CCc3c(nn(Cc4ccccc4)c3Cl)C2=O)COc2cc(C(=O)NCCOCCOCCOCCNC(=O)c3ccc4c(c3)OC[C@H](N3CCc5c(nn(Cc6ccccc6)c5Cl)C3=O)C(=O)N4C)ccc21` [Example 174, (3S)-3-(2-benzyl-3-chloro-7-oxo-2,4,5,7-tetrahydro-6H-pyrazolo[3,4-c]pyridin-6-yl)-N-(13-((3S)-3-(2-benzyl-3-chloro-7-oxo-2,4,5,7-tetrahydro-6H-pyrazolo[3,4-c]pyridin-6-yl)-5-methyl-4-oxo-2,3,4,5-tetrahydro-1,5-benzoxazepin-8-yl)-13-oxo-3,6,9-trioxa-12-azatridec-1-yl)-5-methyl-4-oxo-2,3,4,5-tetrahydro-1,5-benzoxazepine-8-carboxamide], the inhibition at 10 µM was 101%.

Consider `CN1C(=O)[C@@H](N2CCc3c(nn(Cc4ccccc4)c3CO)C2=O)COc2ccccc21` [Example 52, (3S)-3-(2-benzyl-3-(hydroxymethyl)-7-oxo-2,4,5,7-tetrahydro-6H-pyrazolo[3,4-c]pyridin-6-yl)-5-methyl-2,3-dihydro-1,5-benzoxazepin-4(5H)-one], for which the inhibition at 10 µM was found to be 98%. Same read-out and setting: for `CN1C(=O)[C@@H](N2CCc3cn(CC4CCS(=O)(=O)C4)nc3C2=O)COc2ccccc21` (stereo partly drawn) [Example 163, (3S)-3-(2-((1,1-dioxidotetrahydrothiophen-3-yl)methyl)-7-oxo-2,4,5,7-tetrahydro-6H-pyrazolo[3,4-c]pyridin-6-yl)-5-methyl-2,3-dihydro-1,5-benzoxazepin-4(5H)-one] the value was 53%; for `COc1ccc(Cn2c(Cc3ccccc3)nc3c2CCN([C@H]2COc4ccccc4N(C)C2=O)C3=O)cc1` [Example 54, (3S)-3-(2-benzyl-1-(4-methoxybenzyl)-4-oxo-1,4,6,7-tetrahydro-5H-imidazo[4,5-c]pyridin-5-yl)-5-methyl-2,3-dihydro-1,5-benzoxazepin-4(5H)-one], 93%; for `CNC(=O)c1ccc2c(c1)OC[C@H](N1CCc3c(nn(Cc4c(F)cccc4F)c3Cl)C1=O)C(=O)N2C` [Example 46, (3S)-3-(3-chloro-2-(2,6-difluorobenzyl)-7-oxo-2,4,5,7-tetrahydro-6H-pyrazolo[3,4-c]pyridin-6-yl)-N,5-dimethyl-4-oxo-2,3,4,5-tetrahydro-1,5-benzoxazepine-8-carboxamide], 100%.
